Results on 2 compounds are retold here after patent US11883459B2, “Thiol isomerases inhibitors for the treatment and prevention of food allergies, allergic diseases, and inflammatory diseases” (WESTERN NEW ENGLAND UNIVERSITY, priority 2018, dated 2024).

Where a SMILES comes first, the peptide text is derived from it. Bridges are numbered along the chain shown (N, C = ends). [ ]: non-standard residue; d: D form. The star is where a group is joined. Ileψ(thiazoline)Cys = CC[C@H](C)[C@H](N)C1=N[C@H](C(=O)*)CS1; dOrn = NCCC[C@@H](N)C(=O)O

The subject of data set [1] is bone marrow-derived mast cells (BMMCs). The experiment in a line: cytokine production from IgE/antigen-activated bone marrow-derived mast cells (ELISA). Particulars: for activation of mast cells: DNP-IgE priming, DNP-BSA challenge; for production of mast cell cytokines such as TNF-a, IL-6, and IL-13: DNP-IgE/DNP-BSA. Format: cell-based, BALB/c mice. The protocol:
In this study, bone marrow-derived mast cells (BMMCs) were treated with the known PDI inhibitors bacitracin and rutin, and mast cell activation was assessed. BMMCs were generated from BALB/c mice and grown in 10 ng/ml IL-3 and 10 ng/ml stem cell factor (SCF) for 4-8 weeks. One million BMMCs in triplicates were cultured with various concentrations of the PDI inhibitors Bacitracin (Bac) and Rutin (RH) for 1 day or 7 days. Some cells were activated by priming cells with DNP-IgE (Dinitrophenyl IgE) antibodies and challenging with DNP-BSA (dinitrophenyl-bovine serum albumin). Cytokine levels (IL-4, IL-13, TNF-alpha, and IL-6 in FIGS. 1A-1D, respectively) were assessed in the supernatants 24 hr later by ELISA. FIG. 1A-1D show treatment of mast cells with PDI inhibitor Bacitracin or Rutin inhibits the activation of mast cells and the production of mast cell cytokines such as TNF-a, IL-6, and IL-13. In this study, BMMCs were treated with the known PDI inhibitor PACMA-31, and mast cell activation was assessed. Bone marrow derived mast cells (BMMCs) were generated from BALB/c mice and grown in 10 ng/ml IL-3 and 10 ng/ml SCF for 4-8 weeks. 1 million BMMCs in triplicates were cultured with 30 μM PACMA-31 (Sigma-Aldrich) for 30 minutes. Some cells were activated by priming cells with DNP-IgE antibodies and challenging with DNP-BSA. Cytokine levels (IL-13, TNF-alpha, and IL-6 in FIGS. 2A-2C) were assessed in the supernatants 6 hrs later by ELISA. FIG. 2A-2C show treatment of mast cells with the specific PDI inhibitor PACMA-31 inhibits the activation of mast cells and the production of mast cell cytokines such as TNF-a, IL-6, and IL-13.
Background: An ELISA detects its analyte on a solid surface through an enzyme-linked reagent.

Data set [2] relates to ovalbumin-induced food allergy. The experiment in a line: mouse model of ovalbumin-induced, mast cell-mediated food allergy. Format: in vivo, BALB/c mice. The protocol: In this study, wild-type (Wt) mice were sensitized and challenged with ovalbumin and treated with PACMA-31 to determine whether PDI inhibition can modulate the development of food allergy. BALB/c mice were sensitized intraperitoneally (i.p.) with 50 μg ovalbumin (OVA) and 1 mg alum on day zero (d0) and d14. On day 28, some groups of mice were challenged intragastrically with 50 mg OVA once a day on 6 alternating days. Some groups of mice were treated with 300 μg PACMA-31 (P-31) intragastrically daily starting d27. […] The development of allergic diarrhea in this model is dependent on mast cell activation. […] In FIGS. 3A-3F, Wt Cont=wild-type, Control; Wt OVA=wild-type, ovalbumin; Wt+P31 Cont=wild-type, PACMA-31, Control; and Wt+P31 OVA=wild-type, PACMA-31, ovalbumin. FIG. 3A-3F show oral treatment of mice undergoing food allergy with PACMA-31 results in attenuation of the allergic response including mast cell protease levels which indicate mast cell activation (mMCP-1), OVA-IgE levels, and Th2 cytokine levels.

The conditions of data set [3]: known property; cited from earlier work.
Where [4] appears, read: wild-type mice, ovalbumin-induced food allergy.

Consider `CC[C@H](C)[C@H](N)C1=N[C@H](C(=O)N[C@@H](CC(C)C)C(=O)N[C@H](CCC(=O)O)C(=O)N[C@H](C(=O)N[C@H]2CCCCNC(=O)[C@H](CC(N)=O)NC(=O)[C@@H](CC(=O)O)NC(=O)[C@H](Cc3cnc[nH]3)NC(=O)[C@@H](Cc3ccccc3)NC(=O)[C@H]([C@@H](C)CC)NC(=O)[C@@H](CCCN)NC2=O)[C@@H](C)CC)CS1` [Bacitracin, bacitracin] ({Ileψ(thiazoline)Cys}-L[dE]IK[dOrn]I[dF]H[dD]N; lactam 4-C), for which the “activation of mast cells” value in data set [1] (BMMCs cultured with various concentrations for 1 day or 7 days, FIGS. 1A-1D) is “inhibits”. For the same compound, in data set [1] (BMMCs cultured with various concentrations for 1 day or 7 days, supernatants 24 hr later by ELISA, FIGS. 1A-1D), the “production of mast cell cytokines such as TNF-a, IL-6, and IL-13” value is on record as “inhibits”.
`C#CC(=O)N(c1ccc(OC)cc1OC)C(C(=O)NCC(=O)OCC)c1cccs1` (stereo not drawn) [PACMA-31, N-(2,4-dimethoxyphenyl)-N-(1-oxo-2-propyn-1-yl)-2-(2-thienyl)glycylglycine ethyl ester]: in data set [1] (BMMCs cultured with 30 μM for 30 minutes, FIGS. 2A-2C), the “activation of mast cells” value is “inhibits”. Moreover, in data set [1] (BMMCs cultured with 30 μM for 30 minutes, supernatants 6 hrs later by ELISA, FIGS. 2A-2C), the “production of mast cell cytokines such as TNF-a, IL-6, and IL-13” value is on record as “inhibits”. Moreover, the “mast cell protease levels which indicate mast cell activation (serum mMCP-1)” value in data set [2] (300 μg intragastrically daily from d27, OVA-sensitized and challenged mice, FIG. 3A) is on record as “attenuation”. Besides, the “serum OVA-IgE levels” value in data set [2] (300 μg intragastrically daily from d27, OVA-sensitized and challenged mice, FIG. 3B) is on record as “attenuation”. Besides, the “Th2 cytokine levels in supernatants of spleen cells restimulated with OVA” value in data set [2] (300 μg intragastrically daily from d27, OVA-sensitized and challenged mice, FIGS. 3C-3F) was “attenuation”. Also, in data set [2] (setting [4]), the “allergen-specific IgE” value is listed as “decreases”, the “development of food allergy symptoms” value is given as “significant attenuation” and the mast cell activation result is recorded as “decreases”. Moreover, the allergic diarrhea entry in data set [2] (wild-type mice, ovalbumin-induced food allergy, observed one hour after 6th challenge) was “decreases”. In addition, in data set [3], the oral bioavailability entry is “orally bioavailable”.
